Entries after “also recorded” stand apart in the source; their conditions may differ.
Experiments:
wild-type littermates = test: Observed effects on wild-type littermates; format: in vivo, mouse; conditions: 3 mg/kg/day s.c.; WT littermates
Experimental: C57BL/6 N-Tg (Thy1-SNCA)15Mjff/J (JAX: 017682) breeders (C57Bl/6NJ genetic background) were purchased from Jackson Laboratories. The mice were mated, bred, and genotyped in the animal facility of Case Western Reserve University. All mice were maintained at a 12-hour light/dark cycle (on 6 am, off 6 pm). All randomization and peptide treatments in mThy1-hSNCA mice were prepared by an experimenter not associated with the behavioral and neuropathology analysis. Only male mice were used in the study. mThy1-hSNCA transgenic mice and their age-matched WT littermates were implanted with a 28-day subcutaneous osmotic pump (Alzet, Cupertino CA, Model 2004) containing either TAT control peptide or CS2 peptide, which delivered the peptides at indicated rate (1 or 3 or 10 mg/kg/day). The pump was replaced once every four weeks. All mice were sacrificed at age of 10-month for neuropathology assessment.
All behavioral analyses were conducted by an experimenter who was blinded to the genotypes and treatment groups. All mice were subjected to a series of behavioral measurements to monitor locomotor activity (open field test), spontaneous spatial working memory (Y-maze test), and motor coordination (Rotarod test).

ClpP–αSyn interaction = test: ClpP–αSyn co-immunoprecipitation in iPSC-derived neurons; format: cell-based, human; conditions: A53T-αSyn neurons; 1 µM, five days; n = 4
Text: PD iPS cells lines (αSyn A53T, NN0004337, donor) and its isogenic corrected control line (NN0004344) were obtained from RUCDR Infinite Biologics. The iPS cells were differentiated into dopaminergic neuron-enriched neuronal culture with the protocol described previously. Briefly, iPS cell colonies were disassociated with accutase (Invitrogen), plated onto 6-well plates pre-coated with 2.5% Matrigel (BD Biosciences) and allowed to reach 80% confluence in mTeSR medium (Stem Cell Technology). For the first 10 days, cells were treated with SB431542 (10 µM; Tocris Bioscience) and Noggin (100 ng/ml) in Neural Media (NM) with FGF2 ([…]) and EGF ([…]). NM media contained: Neurobasal and DMEM/F12 (1:1), B-27 Supplement Minus Vitamin A (50×, Invitrogen), N2 Supplement (100X, Invitrogen), GlutaMAX (Invitrogen, 100×), 100 units/ml penicillin and 100 µg/ml streptomycin (Fisher); for the next 4 days, cells were treated with human recombinant Sonic hedgehog (SHH, 200 ng/ml) in neuronal differentiation medium. […]
Cells or tissues were lysed in total lysis buffer (50mM Tris-HCl, pH 7.5, 150mM NaCl, 1% Triton X-100, and protease inhibitor). […] The beads with immuno-precipitates were pulled down at 4000 g and washed four times with total lysis buffer/in vitro interaction buffer in the presence of 0.1% Triton X-100 and were analyzed by western blot analysis. […]

SH-SY5Y cells = test: Mitochondrial ROS (Mito-SOX) in SH-SY5Y cells; format: cell-based
Experimental: Cells cultured on coverslips or 24-well plates were washed with DPBS and then incubated with 5 µM Mito-SOX™ Red (Invitrogen, M36008), a mitochondrial superoxide indicator, for 10 min at 37 °C. For cells cultured on coverslips, the images were visualized by microscope, and quantification of images was then carried out using NIH ImageJ software. At least 100 cells per group were counted in the analysis.
The bimolecular fluorescence was examined 24-hour after transfection (n = 3, one-way ANOVA with Tukey’s post-hoc test, scale bar = 30 μm). (D) Quantification of the concentration (ng/ml) of extracellular αSyn monomer and oligomer, and intracellular αSyn oligomer in Tet-inducible SH-SY5Y cells that were pre-treated with TAT or CS2 peptide 30-minute before adding doxycycline (Dox) to induce αSyn expression. The concentration of αSyn species was determined by ELISA (n = 4, one-way ANOVA with Tukey’s post-hoc test; data are mean ± SEM). (E) Representative images of Mito-SOX staining in SH-SY5Y cells that were pre-treated with TAT or CS2 peptide and transfected with split Venus-αSyn vectors. Mitochondrial ROS production was determined by Mito-SOX staining after 24-hour transfection (n = 4, two-tailed Student’s t test, scale bar = 30 μm).

Compound: CC(C)[C@H](NC(=O)CNC(=O)CNC(=O)CCCCCNC(=O)[C@H](CCCNC(=N)N)NC(=O)[C@H](CCCNC(=N)N)NC(=O)[C@H](CCCNC(=N)N)NC(=O)[C@H](CCC(N)=O)NC(=O)[C@H](CCCNC(=N)N)NC(=O)[C@H](CCCNC(=N)N)NC(=O)[C@H](CCCCN)NC(=O)[C@H](CCCCN)NC(=O)[C@H](CCCNC(=N)N)NC(=O)CNC(=O)[C@@H](N)Cc1ccc(O)cc1)C(=O)N[C@H](C(=O)N[C@H](C(=O)N[C@@H](C)C(=O)O)[C@@H](C)O)C(C)C [CS2, TAT-C6-GGVVTA]
- effects on wild-type littermates (wild-type littermates): no observable effects on wild-type littermates
- ClpP–αSyn interaction by co-IP (ClpP–αSyn interaction): markedly reduced the ClpP–αSyn interaction
- mitochondrial ROS, ClpP-deficient cells (SH-SY5Y cells; ClpPsh SH-SY5Y overexpressing αSyn, effect of reducing ROS, n = 13 areas/group): no protective effect; also recorded: not observed in ClpP-deficient cells
- mitochondrial ROS (Mito-SOX intensity) (SH-SY5Y cells; SH-SY5Y expressing VN/VC-αSyn (CS1: WT αSyn), Mito-SOX 5 µM, vs TAT): significant reduction of the fluorescence intensity of Mito-SOX
